In patent US7705021B2, “Isoindolone compounds, compositions containing the same, and methods of use thereof for the treatment of viral infections related to the etiology of cancer” (Fox Chase Cancer Center, priority 2005, dated 2010):

Columns and labels:
[1] = tested on: HLR (HeLa Luciferase Reporter)-Elk-1 cells; test: MAPK signaling reporter assay (Elk-1 luciferase, EGF-stimulated); type: cell-based; conditions: Homo sapiens, 5 h, HLR-Elk-1 cells, EGF 10 ng/ml stimulation, luciferase after five hours
Experimental: The present example describes assays for assessing MAPK pathway signaling modulation mediated by the compounds and compositions described herein. Specifically, compounds of the invention have been assessed in an ELK-1 luciferase reporter assay in HeLa cells to obtain an IC50 measurement as well as to assess their anti-proliferative capacity. Following 72 hours of serum starvation, HLR (HeLa Luciferase Reporter)-Elk-1 cells (30,000 cells per well) were incubated for one hour in the presence or absence of various concentration of inhibitors prior to stimulation of Elk1 release by EGF addition (10 ng/ml). The amount of Elk1 release was measured after five hours using Bright-Glo Luciferase assay (Promega Co., Madison, Wis.).

HCT-116 cells = test: Proliferation assay (WST-1); type: cell-based; conditions: Homo sapiens, HCT-116, 48 hours
Experimental: Five thousand HCT-116 cells were seeded into each well of a 96 well flat bottom plate and incubated over night at 37° C. in 5% CO2. The growth of plated cells was measured by adding […] WST-1 reagent (Roche Applied Sciences, Germany) to three control wells and measuring OD650 and OD450 absorbances with a SpectraMax250 plate reader. If the OD650-OD450 values were above 0.5, the remainder of the plate was used for incubation with compounds or solvent control for 48 hours. After this incubation, WST-1 reagent was added to the wells and OD650-OD450 values were calculated as before. Triplicate wells were assayed for each condition and standard deviation was determined; all experiments were performed at least three times independently.

SMILES	IC50 [1] [µM]	GI50 (HCT-116 cells) [µM]	inhibition at 60 µM (HCT-116 cells) [%]
COc1cc(C2(OC)c3ccccc3C(=O)N2CCc2ccccn2)ccc1OCc1ccccc1 (stereo not drawn) [Compound 7, 3-(4-Benzyloxy-3-methoxy-phenyl)-3-methoxy-2-(2-pyridin-2-yl-ethyl)-2,3-dihydro-isoindol-1-one]	22.2 ± 6.8	22.2 ± 5.3	
COc1cc(C2c3ccccc3C(=O)N2CCc2ccccn2)ccc1OCc1ccccc1 (stereo not drawn) [Compound 8, 3-(4-Benzyloxy-3-methoxy-phenyl)-2-(2-pyridin-2-yl-ethyl)-2,3-dihydro-isoindol-1-one]	31.8 ± 6.1		21
COc1cc(CN2C(=O)c3ccccc3C2Cc2ccccn2)ccc1OCc1ccccc1 (stereo not drawn) [Compound 11, 2-(4-benzyloxy-3-methoxy-benzyl)-3-(2-pyridin-2-yl-methyl)-2,3-dihydro-isoindol-1-one]	43 ± 6.9		26
